Several values for one entry are separate records, joined by “and”; a condition that tells them apart may be missing. Equal entries are not always repeated. Where two headings read alike, the source gives them in different places. *1 amine or outer side, *2 acyl side, *3 side chain or, on linkers, in order; H or OH if unused. Where a SMILES comes first, the peptide text is derived from it. Side-chain parts run from the residue outwards. [ ]: non-standard residue; d: D form. The star is where a group is joined. X1 = CN1C(=CC=CC=CC2=[N+](CCCCCC(=O)NCCN3C(=O)CC(*)C3=O)c3ccccc3C2(C)C)C(C)(C)c2ccccc21; X2 = CN1C(=CC=CC2=[N+](CCCCCC(=O)NCCN3C(=O)CC(*)C3=O)c3ccccc3C2(C)C)C(C)(C)c2ccccc21; C20 diacid = O=C(O)CCCCCCCCCCCCCCCCCCC(=O)*; γGlu = O=C(O)[C@H](CCC(=O)[*:2])N[*:1]; AEEA = NCCOCCOCC(=O)O; Aib = CC(C)(N)C(=O)O
What was measured:
mouse islets = assay: Colocalization (Manders' coefficient) of probes in mouse islets; assay type: cell-based; conditions: WT islets live, TzCy3 500nM + LUX645 100nM
Experimental: (§1) Probe labelling was analysed using corrected total cell fluorescence, which is integrated density − (area of selected cell × mean fluorescence of background readings)[52],[53]. Colocalization was determined using Manders’ coefficient, which calculates the proportion of pixels in one channel that also show intensity from both channels. Full width at half maximum was used to analyse labelling patterns at the membrane versus cytoplasm. All analyses were performed in ImageJ (NIH), with brightness and contrast linearly adjusted across the entire image for presentation purposes and applied equally between all states under examination.

mGIPR = target: T1, mGIPR (Mus musculus, UniProt Q0P543); assay: HTRF cAMP assay in transiently transfected AD293 cells; assay type: cell-based; conditions: based upon cAMP assays and binding affinity
T1 construct: expressed in transfected cells; host or cells: AD293 cells, transient transfection (Lipofectamine 2000)
T1 sequence (Q0P543 19-460): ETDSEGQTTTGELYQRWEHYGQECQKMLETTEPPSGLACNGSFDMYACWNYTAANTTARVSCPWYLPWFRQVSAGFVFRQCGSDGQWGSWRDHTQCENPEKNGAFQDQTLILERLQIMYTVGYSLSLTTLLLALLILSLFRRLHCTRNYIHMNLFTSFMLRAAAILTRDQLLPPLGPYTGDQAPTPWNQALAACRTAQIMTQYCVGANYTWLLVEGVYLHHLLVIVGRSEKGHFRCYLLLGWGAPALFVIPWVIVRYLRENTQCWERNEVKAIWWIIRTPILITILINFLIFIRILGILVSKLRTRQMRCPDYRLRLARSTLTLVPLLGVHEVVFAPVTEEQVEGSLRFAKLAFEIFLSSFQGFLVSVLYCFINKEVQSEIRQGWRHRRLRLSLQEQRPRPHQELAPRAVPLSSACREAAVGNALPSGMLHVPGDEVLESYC
Experimental: AD293 cells (RRID:CVCL_9804) were transiently transfected 24 h before the assay in six-well plates with plasmids encoding wild-type hGLP1R, mGLP1R, hGIPR or mGIPR using Lipofectamine 2000. AD293 cells were authenticated at source using STR profiling. Cells were detached and treated with a range of agonist concentrations in serum-free DMEM + 0.1% BSA for 30 min at 37 °C in 96-well plates, followed by the addition of lysis buffer 2 (Cisbio) at a 1:2 ratio. Lysates were further diluted 1:10 to avoid spectral interference from the higher concentrations of fluorescent ligands in the HTRF assay, and the concentration of cAMP was determined after the addition of cAMP Dynamic detection reagents (Cisbio).

GLP1R^KO/KO islets = assay: Probe labelling of GLP1R^KO/KO islets; assay type: cell-based, mouse; conditions: for CTCF values of daLUXendin544: individual values
Experimental: Mice were humanely killed using a schedule-1 method, and the common bile duct was injected with Serva NB8 (1 mg ml^−1) collagenase. The inflated pancreas was dissected, and islets were isolated using Histopaque-1119 and 1083 (Sigma-Aldrich) gradients and cultured at 37 °C, 5% CO2 in RPMI supplemented with 10% FBS (Gibco), 100 units per ml penicillin and 100 μg ml^−1 streptomycin. Islets were used up to 4 days after isolation.
as §1

Nluc–GIPR (hGIPR) = target: T2, Nluc–GIPR (hGIPR) (Homo sapiens, UniProt P48546); assay: NanoBRET saturation binding assay, HEK293T cells
T2 construct: expressed in transfected cells; host or cells: HEK293T cells, transient expression
T2 sequence (P48546 22-466): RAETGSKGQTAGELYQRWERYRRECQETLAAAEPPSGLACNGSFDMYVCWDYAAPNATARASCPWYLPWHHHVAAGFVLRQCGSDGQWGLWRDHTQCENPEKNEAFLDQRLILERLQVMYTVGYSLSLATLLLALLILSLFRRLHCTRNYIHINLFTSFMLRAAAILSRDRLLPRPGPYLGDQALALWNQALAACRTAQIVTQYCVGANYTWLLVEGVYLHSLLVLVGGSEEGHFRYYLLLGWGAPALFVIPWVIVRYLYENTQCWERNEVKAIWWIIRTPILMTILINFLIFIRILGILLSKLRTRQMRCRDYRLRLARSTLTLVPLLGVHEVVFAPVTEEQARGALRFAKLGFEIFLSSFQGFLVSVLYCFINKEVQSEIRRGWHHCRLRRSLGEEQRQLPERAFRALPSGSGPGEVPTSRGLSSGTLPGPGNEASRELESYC
Experimental: (§2) HEK293T cells (RRID:CVCL_0063) were cultured in DMEM/F12 GlutaMAX (ThermoFisher), supplemented with 10% FBS and 1% antibiotic-antimycotic solution and cultured at 37 °C, 5% CO2. HEK293T cells were authenticated at source using STR profiling. […] Media was then removed and the cells were incubated in PBS supplemented with 0.1% BSA and 0.01% NanoGlo (Promega). […] Plates were read using a PheraSTAR microplate reader, using the NanoBRET filter module. BRET ratios (λacceptor/λdonor) were calculated, and saturation data fit using the ‘One Site – Specific Binding’ equation of GraphPad Prism 10. Competition binding was fit using the ‘One Site – Fit Ki’ equation.

Nluc–GLP1R (hGLP1R) = target: T3, Nluc–GLP1R (hGLP1R) (Homo sapiens, UniProt P43220); assay: NanoBRET saturation binding assay, HEK293T cells
T3 construct: expressed in transfected cells; host or cells: HEK293T cells, transient expression
T3 sequence (P43220 24-463): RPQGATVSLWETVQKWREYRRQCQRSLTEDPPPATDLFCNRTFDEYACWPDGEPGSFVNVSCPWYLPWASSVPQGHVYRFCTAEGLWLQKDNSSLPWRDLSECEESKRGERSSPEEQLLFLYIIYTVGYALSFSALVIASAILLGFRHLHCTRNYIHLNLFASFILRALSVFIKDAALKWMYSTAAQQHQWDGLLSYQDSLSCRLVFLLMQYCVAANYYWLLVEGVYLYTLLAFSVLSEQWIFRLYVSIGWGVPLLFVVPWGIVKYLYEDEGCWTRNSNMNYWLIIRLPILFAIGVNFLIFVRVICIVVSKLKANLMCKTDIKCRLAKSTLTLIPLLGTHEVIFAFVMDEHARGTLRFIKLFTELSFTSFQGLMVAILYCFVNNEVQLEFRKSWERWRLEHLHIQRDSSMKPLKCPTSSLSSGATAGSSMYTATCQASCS
Experimental: as §2

[1] = target: human GIPR (Nluc-GIPR) (human) (UniProt P48546); assay: FRET or BRET; NanoBRET saturation binding on HEK293T cells transiently expressing Nluc-GLP1R or Nluc-GIPR; PBS with 0.1% BSA and 0.01% NanoGlo; daLUXendin added over a range of concentrations, without or with 1 uM GIP and 1 uM Exendin-9 to determine specific binding; fit 'One Site - Specific Binding'
[2] = target: Nluc-tagged human GIPR (human) (UniProt P48546); assay: FRET or BRET
[3] = target: Nluc-tagged human GLP1R (human) (UniProt P43220); assay: FRET or BRET
Chain of Nluc-tagged human GLP1R (human) (P43220 24-463): as above

[4] = target: human GLP1R (Nluc-GLP1R) (human) (UniProt P43220); assay: FRET or BRET; NanoBRET saturation binding on HEK293T cells transiently expressing Nluc-GLP1R or Nluc-GIPR; PBS with 0.1% BSA and 0.01% NanoGlo; daLUXendin added over a range of concentrations, without or with 1 uM GIP and 1 uM Exendin-9 to determine specific binding; fit 'One Site - Specific Binding'
Chain of human GLP1R (Nluc-GLP1R) (human) (P43220 24-463): as above

[5] = target: human GLP1R (Nluc-GLP1R) (human) (UniProt P43220); assay: as above; remark: listed apart in the source
[6] = target: human GIPR (Nluc-GIPR) (human) (UniProt P48546); assay: as above; remark: listed apart in the source

CC[C@H](C)[C@H](NC(=O)[C@H](CC(C)C)NC(=O)[C@H](Cc1c[nH]c2ccccc12)NC(=O)[C@H](CCC(N)=O)NC(=O)[C@@H](NC(=O)[C@H](Cc1ccccc1)NC(=O)[C@H](C)NC(=O)[C@H](CCCCN)NC(=O)[C@H](CCC(N)=O)NC(=O)[C@H](C)NC(=O)[C@@H](NC(=O)[C@H](CCCCN)NC(=O)[C@H](CC(=O)O)NC(=O)[C@H](CC(C)C)NC(=O)C(C)(C)NC(=O)[C@@H](NC(=O)[C@H](CO)NC(=O)[C@H](Cc1ccc(O)cc1)NC(=O)[C@H](CC(=O)O)NC(=O)[C@H](CO)NC(=O)[C@@H](NC(=O)[C@H](Cc1ccccc1)NC(=O)[C@@H](NC(=O)CNC(=O)[C@H](CCC(=O)O)NC(=O)C(C)(C)NC(=O)[C@@H](N)Cc1ccc(O)cc1)[C@@H](C)O)[C@@H](C)O)[C@@H](C)CC)[C@@H](C)CC)C(C)C)C(=O)N[C@@H](C)C(=O)NCC(=O)NCC(=O)N1CCC[C@H]1C(=O)N[C@@H](CO)C(=O)N[C@@H](CO)C(=O)NCC(=O)N[C@@H](C)C(=O)N1CCC[C@H]1C(=O)N1CCC[C@H]1C(=O)N1CCC[C@H]1C(=O)N[C@@H](CSC1CC(=O)N(CCNC(=O)CCCCC[N+]2=C(C=CC=C3N(C)c4ccccc4C3(C)C)C(C)(C)c3ccccc32)C1=O)C(N)=O (stereo partly drawn) [daLUXendin544] (H-Y[Aib]EGTFTSDYSI[Aib]LDKIAQKAFVQWLIAGGPSSGAPPPC(X2)-NH2)
M1, daLUXendin544 vs LUXendin645 (mouse islets; image 1): 0.917 | M2, daLUXendin544 vs LUXendin645 (mouse islets; image 1): 0.994 | Manders' R, daLUXendin544 vs LUXendin645 (mouse islets; image 1): 0.852 | Pearson's, daLUXendin544 vs LUXendin645 (mouse islets; image 1): 0.83 | M1, daLUXendin544 vs LUXendin645 (mouse islets; image 2): 0.927 | M2, daLUXendin544 vs LUXendin645 (mouse islets; image 2): 0.996 | Manders' R, daLUXendin544 vs LUXendin645 (mouse islets; image 2): 0.744 | Pearson's, daLUXendin544 vs LUXendin645 (mouse islets; image 2): 0.679 | M1, daLUXendin544 vs LUXendin645 (mouse islets; image 3): 0.956 | M2, daLUXendin544 vs LUXendin645 (mouse islets; image 3): 0.995 | Manders' R, daLUXendin544 vs LUXendin645 (mouse islets; image 3): 0.727 | Pearson's, daLUXendin544 vs LUXendin645 (mouse islets; image 3): 0.616 | selectivity for mouse GLP1R over GIPR compared to tirzepatide (mGIPR): approximately fourfold less selectivity | CTCF values of daLUXendin544 (GLP1R^KO/KO islets; GLP1R-/- + GIP): 466750 and 425691 and 412346 and 398972 and 803260 and 1574894 and 1388527 and 1122278 and 848564 and 323100 and 555998 and 554147 and 545690 | CTCF values of daLUXendin544 (GLP1R^KO/KO islets; GLP1R-/-): 1138974 and 1525024 and 2200632 and 868278 and 1499758 and 2095767 and 1136530 and 1464030 and 649874 and 1541507 and 604319 and 865421 | CTCF values of daLUXendin544 (GLP1R^KO/KO islets; GLP1RWT/WT): 3434876 and 3087793 and 4777725 and 2187512 and 1805461 and 1906480 and 1520223 and 2186271 and 2694391 and 5360897 and 5342379 and 1938584 and 1738950 | reduction of labelling in GLP1R^KO/KO islets (GLP1R^KO/KO islets; versus wild-type islets): ~ 50%

CC[C@H](C)[C@H](NC(=O)[C@H](CC(C)C)NC(=O)[C@H](Cc1c[nH]c2ccccc12)NC(=O)[C@H](CCC(N)=O)NC(=O)[C@@H](NC(=O)[C@H](Cc1ccccc1)NC(=O)[C@H](C)NC(=O)[C@H](CCCCNC(=O)COCCOCCNC(=O)COCCOCCNC(=O)CC[C@H](NC(=O)CCCCCCCCCCCCCCCCCCC(=O)O)C(=O)O)NC(=O)[C@H](CCC(N)=O)NC(=O)[C@H](C)NC(=O)[C@@H](NC(=O)[C@H](CCCCN)NC(=O)[C@H](CC(=O)O)NC(=O)[C@H](CC(C)C)NC(=O)C(C)(C)NC(=O)[C@@H](NC(=O)[C@H](CO)NC(=O)[C@H](Cc1ccc(O)cc1)NC(=O)[C@H](CC(=O)O)NC(=O)[C@H](CO)NC(=O)[C@@H](NC(=O)[C@H](Cc1ccccc1)NC(=O)[C@@H](NC(=O)CNC(=O)[C@H](CCC(=O)O)NC(=O)C(C)(C)NC(=O)[C@@H](N)Cc1ccc(O)cc1)[C@@H](C)O)[C@@H](C)O)[C@@H](C)CC)[C@@H](C)CC)C(C)C)C(=O)N[C@@H](C)C(=O)NCC(=O)NCC(=O)N1CCC[C@H]1C(=O)N[C@@H](CO)C(=O)N[C@@H](CO)C(=O)NCC(=O)N[C@@H](C)C(=O)N1CCC[C@H]1C(=O)N1CCC[C@H]1C(=O)N1CCC[C@H]1C(=O)N[C@@H](CSC1CC(=O)N(CCNC(=O)CCCCC[N+]2=C(C=CC=CC=C3N(C)c4ccccc4C3(C)C)C(C)(C)c3ccccc32)C1=O)C(N)=O (stereo partly drawn) [daLUXendin660+] (H-Y[Aib]EGTFTSDYSI[Aib]LDKIAQK([AEEA-AEEA-γGlu-C20 diacid])AFVQWLIAGGPSSGAPPPC(X1)-NH2)
Bmax best-fit (nM), hGIPR (Nluc–GIPR (hGIPR); Nluc-tagged hGIPR, NanoBRET saturation, n = 3 independent repeats): 0.02314 nM | Bmax (Nluc–GIPR (hGIPR); hGIPR, nonlin fit, One site -- Specific binding, best-fit value of pooled data): 0.02314 | Bmax best-fit (nM), hGLP1R (Nluc–GLP1R (hGLP1R); Nluc-tagged hGLP1R, NanoBRET saturation, n = 3 independent repeats): 0.03361 nM | Bmax (Nluc–GLP1R (hGLP1R); hGLP1R, nonlin fit, One site -- Specific binding, best-fit value of pooled data): 0.03361

daLUXendin660 (peptide)
Kd [1]: 10.2 nM and 4.22 nM and 7.41 nM | Kd [2]: 8.7 nM | Kd [3]: 2.18 nM

daLUXendin660+ (peptide)
Kd [4]: 2.14 nM and 1.77 nM and 3.89 nM | Kd [1]: 12.2 nM and 10.7 nM and 14.1 nM | Kd [2]: 6.46 nM | Kd [3]: 1.38 nM | Kd [5]: 1.38 nM | Kd [6]: 6.46 nM
